Source: PubChem BioAssay AID328 (DTP/NCI, 2004)
“And” between values parts separate entries of the source, which are not always exact repeats. Equal values may be shown once. Inconclusive results and toxic doses are left out.

Tested on: BDF1 mice, P388 leukemia ip, median survival T/C
Experiment: NCI In Vivo Anticancer Drug Screen. Data for tumor model P388 Leukemia (intraperitoneal) in B6D2F1 (BDF1) mice
Conditions: endpoint: median survival time, higher = longer survival
Method in brief: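 Reported as T/C, where T is the survival measurement in dosed animals and C the same measurement in vehicle controls.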

[1] = dose: 50.0 mg/kg/injection, schedule: Q01DX005 (ip), vehicle: saline with Tween-80
[2] = dose: 200.0 mg/kg/injection, schedule: Q01DX005 (ip), vehicle: saline with Tween-80
[3] = dose: 50.0 mg/kg/injection, schedule: Q01DX009 (ip), vehicle: saline with Tween-80
[4] = dose: 100.0 mg/kg/injection, schedule: Q01DX009 (ip), vehicle: saline with Tween-80
[5] = dose: 200.0 mg/kg/injection, schedule: Q04DX003 (ip), vehicle: saline with Tween-80
[6] = dose: 100.0 mg/kg/injection, schedule: Q04DX003 (ip), vehicle: saline with Tween-80

COc1ccc2c(c1OC)CN1CCc3cc4c(cc3C1=C2)OCO4
T/C [1]: 102 % of control | T/C (dose: 100.0 mg/kg/injection, schedule: Q01DX005 (ip), vehicle: saline with Tween-80): 90 % of control | T/C [2]: 91 % of control

Cc1ccc(C(SCC(N)C(=O)O)(c2ccccc2)c2ccc(C)cc2)cc1 (stereo not given)
T/C [3]: 268 % of control | T/C [4]: 172 % of control | T/C (dose: 132.0 mg/kg/injection, schedule: Q04DX003 (ip), vehicle: saline with Tween-80): 190 % of control | T/C [5]: 231 % of control

COc1ccc(C(=O)C(O)c2ccccc2)cc1 (stereo not given)
T/C (dose: 100.0 mg/kg/injection, schedule: Q04DX003 (ip), vehicle: other): 100 % of control | T/C (dose: 200.0 mg/kg/injection, schedule: Q04DX003 (ip), vehicle: other): 100 % of control

COCC(O)CN1CCN(c2ccccc2C)CC1 (stereo not given)
T/C (dose: 25.0 mg/kg/injection, schedule: Q01DX009 (ip), vehicle: saline with Tween-80): 87 % of control | T/C [3]: 95 % of control | T/C [4]: 91 % of control

COC1C(CO)OC(n2cnc3c(=S)nc(N)[nH]c32)C1O (stereo not given)
T/C [6]: 104 % of control | T/C [5]: 104 % of control | T/C (dose: 600.0 mg/kg/injection, schedule: Q04DX003 (ip), vehicle: saline with Tween-80): 122 % of control

COC(=O)/C(C#N)=C/c1c[nH]c2ccccc12
T/C [6]: 100 % of control | T/C [5]: 109 % of control | T/C (dose: 400.0 mg/kg/injection, schedule: Q04DX003 (ip), vehicle: saline with Tween-80): 100 % of control

COc1ccc(C(CC(C)=O)c2c(O)c3ccccc3oc2=O)cc1OC (stereo not given)
T/C (dose: 3.12 mg/kg/injection, schedule: Q04DX003 (ip), vehicle: water): 98 % of control | T/C (dose: 6.25 mg/kg/injection, schedule: Q01DX009 (ip), vehicle: water): 100 % of control | T/C (dose: 6.25 mg/kg/injection, schedule: Q04DX003 (ip), vehicle: water): 101 % of control | T/C (dose: 12.5 mg/kg/injection, schedule: Q01DX009 (ip), vehicle: water): 100 % of control | T/C (dose: 12.5 mg/kg/injection, schedule: Q04DX003 (ip), vehicle: water): 100 % of control | T/C (dose: 25.0 mg/kg/injection, schedule: Q04DX003 (ip), vehicle: water): 105 % of control | T/C (dose: 50.0 mg/kg/injection, schedule: Q04DX003 (ip), vehicle: water): 100 % of control | T/C (dose: 100.0 mg/kg/injection, schedule: Q04DX003 (ip), vehicle: water): 100 % of control and 102 % of control | T/C (dose: 200.0 mg/kg/injection, schedule: Q04DX003 (ip), vehicle: water): 101 % of control | T/C (dose: 400.0 mg/kg/injection, schedule: Q04DX003 (ip), vehicle: water): 90 % of control

COc1cc2c(cc1OC)C(OC)N(C)c1c-2ccc2cc3c(cc12)OCO3 (stereo not given)
T/C (dose: 1.1 mg/kg/injection, schedule: Q01DX009 (ip), vehicle: water): 118 % of control | T/C (dose: 1.4 mg/kg/injection, schedule: Q04DX003 (ip), vehicle: saline with Tween-80): 122 % of control | T/C (dose: 1.46 mg/kg/injection, schedule: Q01DX009 (ip), vehicle: saline with Tween-80): 160 % of control | T/C (dose: 2.2 mg/kg/injection, schedule: Q01DX009 (ip), vehicle: saline with Tween-80): 151 % of control | T/C (dose: 2.5 mg/kg/injection, schedule: Q01DX009 (ip), vehicle: water): 181 % of control | T/C (dose: 3.3 mg/kg/injection, schedule: Q01DX009 (ip), vehicle: saline with Tween-80): 169 % of control | T/C (dose: 4.4 mg/kg/injection, schedule: Q01DX009 (ip), vehicle: saline with Tween-80): 167 % of control | T/C (dose: 5.0 mg/kg/injection, schedule: Q01DX009 (ip), vehicle: saline with Tween-80): 176 % of control | T/C (dose: 5.0 mg/kg/injection, schedule: Q01DX009 (ip), vehicle: water): 159 % of control and 190 % of control | T/C (dose: 5.0 mg/kg/injection, schedule: Q04DX003 (ip), vehicle: saline with Tween-80): 150 % of control | T/C (dose: 6.6 mg/kg/injection, schedule: Q01DX009 (ip), vehicle: saline with Tween-80): 216 % of control | T/C (dose: 10.0 mg/kg/injection, schedule: Q01DX009 (ip), vehicle: saline with Tween-80): 191 % of control and 218 % of control | T/C (dose: 10.0 mg/kg/injection, schedule: Q01DX009 (ip), vehicle: saline): 170 % of control | T/C (dose: 10.0 mg/kg/injection, schedule: Q01DX009 (ip), vehicle: water): 177 % of control and 200 % of control | T/C (dose: 10.0 mg/kg/injection, schedule: Q04DX003 (ip), vehicle: other): 163 % of control | T/C (dose: 14.6 mg/kg/injection, schedule: Q04DX003 (ip), vehicle: saline with Tween-80): 168 % of control | T/C (dose: 15.0 mg/kg/injection, schedule: Q01DX009 (ip), vehicle: saline with Tween-80): 188 % of control | T/C (dose: 15.0 mg/kg/injection, schedule: Q04DX003 (ip), vehicle: other): 200 % of control | T/C (dose: 20.0 mg/kg/injection, schedule: Q01DX009 (ip), vehicle: saline with Tween-80): 220 % of control and 165 % of control | T/C (dose: 20.0 mg/kg/injection, schedule: Q01DX009 (ip), vehicle: saline): 195 % of control | T/C (dose: 20.0 mg/kg/injection, schedule: Q01DX009 (ip), vehicle: water): 195 % of control and 220 % of control | T/C (dose: 20.0 mg/kg/injection, schedule: Q04DX003 (ip), vehicle: saline): 165 % of control | T/C (dose: 22.0 mg/kg/injection, schedule: Q04DX003 (ip), vehicle: saline with Tween-80): 168 % of control | T/C (dose: 33.0 mg/kg/injection, schedule: Q04DX003 (ip), vehicle: saline with Tween-80): 263 % of control | T/C (dose: 40.0 mg/kg/injection, schedule: Q01DX009 (ip), vehicle: saline with Tween-80): 160 % of control and 175 % of control | T/C (dose: 40.0 mg/kg/injection, schedule: Q01DX009 (ip), vehicle: saline): 195 % of control | T/C (dose: 40.0 mg/kg/injection, schedule: Q01DX009 (ip), vehicle: water): 186 % of control and 200 % of control | T/C (dose: 40.0 mg/kg/injection, schedule: Q04DX003 (ip), vehicle: saline): 170 % of control | T/C (dose: 50.0 mg/kg/injection, schedule: Q01DX009 (ip), vehicle: Klucel (hydroxypropylcellulose) (HPC)): 205 % of control | T/C (dose: 50.0 mg/kg/injection, schedule: Q04DX002 (ip), vehicle: Klucel (hydroxypropylcellulose) (HPC)): 106 % of control | T/C (dose: 50.0 mg/kg/injection, schedule: Q04DX003 (ip), vehicle: saline with Tween-80): 231 % of control | T/C (dose: 52.0 mg/kg/injection, schedule: Q01DX009 (ip), vehicle: saline with Tween-80): 181 % of control | T/C (dose: 80.0 mg/kg/injection, schedule: Q01DX009 (ip), vehicle: saline): 180 % of control | T/C (dose: 80.0 mg/kg/injection, schedule: Q01DX009 (ip), vehicle: water): 109 % of control | T/C (dose: 80.0 mg/kg/injection, schedule: Q04DX003 (ip), vehicle: saline): 180 % of control | T/C (dose: 100.0 mg/kg/injection, schedule: Q04DX002 (ip), vehicle: Klucel (hydroxypropylcellulose) (HPC)): 172 % of control | T/C (dose: 120.0 mg/kg/injection, schedule: Q01DX009 (ip), vehicle: water): 113 % of control | T/C (dose: 180.0 mg/kg/injection, schedule: Q01DX009 (ip), vehicle: saline with Tween-80): 104 % of control | T/C (dose: 200.0 mg/kg/injection, schedule: Q01DX009 (ip), vehicle: Klucel (hydroxypropylcellulose) (HPC)): 200 % of control | T/C (dose: 400.0 mg/kg/injection, schedule: Q04DX002 (ip), vehicle: Klucel (hydroxypropylcellulose) (HPC)): 190 % of control

O=c1c2ccccc2nnn1Cc1ccco1
T/C [1]: 99 % of control | T/C [2]: 89 % of control
